Test results from PMC11998406 (BMC Chemistry, 2025).

Assays:
BChE = BChE (Equus caballus, UniProt P81908); assay: Kinetic study of BChE inhibition; type: biochemical, horse; settings: 13s at 0, 5, 20, 40 µM; butyrylthiocholine iodide 187.5-3000 µM
[1] = test system: SH-SY5Y neuroblastoma cell line; assay: Cell viability; type: cell-based; settings: up to 25 µM

Chain of BChE (P81908 whole entry): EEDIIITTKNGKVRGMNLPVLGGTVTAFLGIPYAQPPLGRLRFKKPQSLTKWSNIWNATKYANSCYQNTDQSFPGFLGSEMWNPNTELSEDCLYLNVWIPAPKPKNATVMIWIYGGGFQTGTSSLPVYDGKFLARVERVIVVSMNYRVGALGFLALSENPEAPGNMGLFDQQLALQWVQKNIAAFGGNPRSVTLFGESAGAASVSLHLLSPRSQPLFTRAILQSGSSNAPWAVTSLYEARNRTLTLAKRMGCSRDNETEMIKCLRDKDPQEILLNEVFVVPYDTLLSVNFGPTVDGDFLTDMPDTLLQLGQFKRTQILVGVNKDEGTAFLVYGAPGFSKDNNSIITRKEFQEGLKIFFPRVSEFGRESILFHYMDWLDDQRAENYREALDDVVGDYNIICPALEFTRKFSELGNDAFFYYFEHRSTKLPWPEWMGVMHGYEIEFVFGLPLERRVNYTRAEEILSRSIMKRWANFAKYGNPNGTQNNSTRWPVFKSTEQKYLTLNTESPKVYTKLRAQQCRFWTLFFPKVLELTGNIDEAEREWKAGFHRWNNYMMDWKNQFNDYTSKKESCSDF

In the case of `Cc1ccc(Cn2cc(COc3ccc(-c4nnc(-c5ccc([N+](=O)[O-])cc5)o4)cc3)nn2)cc1` [Compound 13s, 2-(4-((1-(4-Methylbenzyl)-1 H-1,2,3-triazol-4-yl)methoxy)phenyl)-5-(4-nitrophenyl)-1,3,4-oxadiazole], the “mechanism of BChE inhibition (Lineweaver-Burk)” value (BChE) is reported as “competitive inhibition pattern” and the toxicity [1] is reported as “no toxicity”.
